Laboratory results reported in patent US6469209B1, “Acrylate-type fungicide” (Dongbu Hannong Chemical Co., Ltd., priority 1999, dated 2002).
Read-outs that look alike come from different tables or passages of the source.

Assays:
Bipolaris maydis = experiment: Protective effect test on southern corn leaf blight (CLB); format: in vivo; details: corn treated one day before inoculation
Experimental: A plant pathogen, Bipolaris maydis, was inoculated on the Difco Lima Bean Agar (10 g/L) medium containing 10 g/L dextrose, and incubated at 24° C. with and without fluorescent light for 12 hours each time for 7 days in a growth chamber. After forming spores, the conidiospore was harvested in Tween-20 solution (250 ppm), adjusted at the concentration of 5×10^5 spores/ml and used as inoculum. The southern corn (golden crossbantam 70) for test was grown to be at 4 or 5-leaf stage in a greenhouse. One day after the treating with the agricultural fungicidal compositions, the inoculum was sprayed an young seedlings of the corn, and incubated at 27° C. and 100% relative humidity for 24 hours in a dew chamber to infiltrate the pathogen. The young seedling were incubated at 27° C. and 90% relative humidity for 3 days in a growth chamber to induce the disease. A ratio of diseased areas to total areas of the corn leaves was examined according to the criteria for determining a degree of disease induction.
In the above experiment 2, control value of the compound on the tested pathogens was calculated according to the following mathematical formula 1, and the results were shown in Table 2. For only cucumber damping off, it was examined according to the above-mentioned separate criteria.
Control value(%)=(1—the ratio of diseased area in the treated plant/the ratio of diseased area in the untreated plant)×100

Venturia inaequalis = experiment: Protective effect test on apple scab (APS); format: in vivo; details: apple seedlings treated one day before inoculation
[1] = test system: Colletotrichum lagenarium; experiment: Protective effect test on cucumber anthracnose (CUA); format: in vivo; details: cucumber treated one day before inoculation
Botrytis cinerea = experiment: Protective effect test on cucumber gray mould (CGM); format: in vivo
Phytophthora infestans = format: in vivo; details: sprayed on tomato one day before inoculation
[2] = test system: Pyricularia oryzae Cavara KJ301 strain; format: in vivo; details: sprayed one day after inoculation
[3] = test system: Erysiphe graminis f. sp. hordei; details: in vivo
Rhizoctonia solani AG-1 = experiment: Protective effect test on rice sheath blight (RSB); format: in vivo
Puccinia recondita [4] = experiment: Protective effect test on wheat leaf rust (WLR); format: in vivo
Puccinia recondita [5] = experiment: Systemic effect test on wheat leaf rust; format: in vivo
[6] = test system: Erysiphe graminis f. sp. hordei; experiment: Systemic effect test on barley powdery mildew; format: in vivo; details: soil irrigation (10 mL) 24 hours before inoculation
Pythium ultimum = experiment: Protective effect test on cucumber damping off (CDO); format: in vivo; details: soil irrigation (10 mL), disease index after 7 days
Experimental: The potato mixture was inoculated with a plant pat hogen causing cucumber damping off, Pythium ultimum, incubated at 25° C. for 15 days in a growth chamb e r and used as inoculum. Soil (150 mL) prepared by mixing vermiculite and field soil (1:1) was sterilized and mixed with the potato mixture (1 g) to use it as inoculum. After filling the inoculated soil in the pot (diameter 9 cm), five cucumber seeds (house Baekdadagio® cucumber) were sown in the above pot and irrigated with the agricultural fungicidal compositions (10 mL) prepared at the appropriate concentrations. Seven days after the treating with the agricultural fungicidal compositions, a degree of the disease induction was examined based upon criteria for determining the disease index, and control efficacy was determined according to the above examination. The criteria was listed in the following. Criteria 4: seeds don't germinate due to disease outbreak. 3: a young seedling dies in the middle of emergence. 2: ground surface is narrowed due to disease outbreak. 1: growth is poor due to disease outbreak of partial roots. 0: healthy plant […] For only cucumber damping off, it was examined according to the above-mentioned separate criteria.

Sphaerotheca fuliginea = experiment: Protective effect test on cucumber powdery mildew (CPM); format: in vivo; details: sprayed on cucumber one day before inoculation
Experimental: A plant pathogen, Sphaerotheca fuliginea, was prepared by collecting the diseased leaves of cucumber grown in a vinylhouse, and its spores were suspended in sterilized water. The concentration of the pathogenic spores was adjusted to 10^5 spores/mL and used as inoculum. After a cucumber seed (house ‘Baekdadagi®’ cucumber) was sown in a small pot (diameter 6.5 cm), it was grown in a greenhouse for two weeks and young seedlings with the first true completely open leaf were used for test. After the young seedlings of the cucumber in the small pots were sprayed with agricultural fungicidal compositions prepared at the appropriate concentrations, they were left for 1 day in a greenhouse to dry the fungicidal compositions. The young seedlings of cucumber were inoculated with the prepared pathogenic spores of cucumber powdery mildew by spraying and incubated for 10 days in a green house to induce the disease. A ratio of the diseased areas to total areas of the first true completely open leaves was determined according to the criteria for determining a degree of disease induction. […] For only cucumber damping off, it was examined according to the above-mentioned separate criteria.

[7] = test system: Pyricularia oryzae Cavara KJ301 strain; format: in vivo; details: sprayed on rice one day before inoculation
[8] = test system: Pyricularia oryzae Cavara KJ301 strain; format: in vivo; details: 100 ppm, soil irrigation (10 mL) 24 hours before inoculation
Puccinia recondita [9] = details: in vivo
[10] = test system: Erysiphe graminis f. sp. hordei; experiment: Protective effect test on barley powdery mildew (BPM); format: in vivo

## Mancozeb [L, reference compound]
Bipolaris maydis; 100 ppm
  Control value (%) CLB: 80%
Venturia inaequalis; 100 ppm
  Control value (%) APS: 82%
[1]; 100 ppm
  Control value (%) CUA: 85%

## CC12CC1(C)C(=O)N(c1cc(Cl)cc(Cl)c1)C2=O (stereo not shown) [C, Procymidone, reference compound]
Botrytis cinerea; in vivo
  Control value (%) CGM: 40%

## CNC(=O)/C(=N/OC)c1c(C)cccc1COc1ccccc1C [The compound of formula 1, N-methyl E-2-((2-methylphenyl)oxymethyl)-6-methylphenylglyoxylamide O-methyl oxime]
Botrytis cinerea; 2 ppm, sprayed on cucumber one day before inoculation
  Control value (%) CGM: 30%
Botrytis cinerea; 10 ppm, sprayed on cucumber one day before inoculation
  Control value (%) CGM: 40%
Phytophthora infestans; 2 ppm
  Control value (%) TLB: 79%
Phytophthora infestans; 10 ppm
  Control value (%) TLB: 89%
Bipolaris maydis; 10 ppm
  Control value (%) CLB: 80%
Bipolaris maydis; 100 ppm
  Control value (%) CLB: 90%
[2]; 10 ppm
  Control value (%) RCB C.E. (curative effect): 84%
Venturia inaequalis; 1 ppm
  Control value (%) APS: 60%
Venturia inaequalis; 10 ppm
  Control value (%) APS: 92%
Venturia inaequalis; 100 ppm
  Control value (%) APS: 100%
[3]
  Control value (%) BPM C.E. (curative effect): 100%
Rhizoctonia solani AG-1; 2 ppm, sprayed on rice one day before inoculation
  Control value (%) RSB: 21%
Rhizoctonia solani AG-1; 10 ppm, sprayed on rice one day before inoculation
  Control value (%) RSB: 53%
Puccinia recondita [4]; 2 ppm, sprayed on wheat one day before inoculation
  Control value (%) WLR: 99%
Puccinia recondita [4]; 10 ppm, sprayed on wheat one day before inoculation
  Control value (%) WLR: 100%
Puccinia recondita [5]; 2 ppm, soil irrigation (10 mL) 24 hours before inoculation
  Control value (%) WLB S.E. (systemic effect): 43%
Puccinia recondita [5]; 10 ppm, soil irrigation (10 mL) 24 hours before inoculation
  Control value (%) WLB S.E. (systemic effect): 100%
Puccinia recondita [5]; 100 ppm, soil irrigation (10 mL) 24 hours before inoculation
  Control value (%) WLB S.E. (systemic effect): 100%
[6]; 2 ppm
  Control value (%) BPM S.E. (systemic effect): 67%
[6]; 10 ppm
  Control value (%) BPM S.E. (systemic effect): 80%
[6]; 100 ppm
  Control value (%) BPM S.E. (systemic effect): 100%
Pythium ultimum; 1 ppm
  Control value (%) CDO: 30%
Pythium ultimum; 10 ppm
  Control value (%) CDO: 100%
Pythium ultimum; 100 ppm
  Control value (%) CDO: 100%
Sphaerotheca fuliginea; 1 ppm
  Control value (%) CPM: 80%
Sphaerotheca fuliginea; 10 ppm
  Control value (%) CPM: 100%
Sphaerotheca fuliginea; 100 ppm
  Control value (%) CPM: 100%
[1]; 1 ppm
  Control value (%) CUA: 80%
[1]; 10 ppm
  Control value (%) CUA: 100%
[1]; 100 ppm
  Control value (%) CUA: 100%
[7]; 2 ppm
  Control value (%) RCB: 100%
[7]; 10 ppm
  Control value (%) RCB: 100%
[8]
  Control value (%) RCB S.E. (systemic effect): 56%
Puccinia recondita [9]
  Control value (%) WLB C.E. (curative effect): 100%
[10]; 2 ppm, sprayed on barley one day before inoculation
  Control value (%) BPM: 98%
[10]; 10 ppm, sprayed on barley one day before inoculation
  Control value (%) BPM: 100%

## CCCCNC(=O)n1c(NC(=O)OC)nc2ccccc21 [K, Benomyl, reference compound]
Venturia inaequalis; 10 ppm
  Control value (%) APS: 85%
Pythium ultimum; 10 ppm
  Control value (%) CDO: 20%
Sphaerotheca fuliginea; 10 ppm
  Control value (%) CPM: 85%
[1]; 10 ppm
  Control value (%) CUA: 65%

## CO/N=C(/C(=O)OC)c1ccccc1COc1ccccc1C [F, Kresoxim methyl, reference compound]
Botrytis cinerea; in vivo
  Control value (%) CGM: 10%
Phytophthora infestans; 10 ppm
  Control value (%) TLB: 57%
[2]; 10 ppm
  Control value (%) RCB C.E. (curative effect): 39%
[3]
  Control value (%) BPM C.E. (curative effect): 50%
Rhizoctonia solani AG-1; in vivo
  Control value (%) RSB: 5%
Puccinia recondita [4]; in vivo
  Control value (%) WLR: 93%
Puccinia recondita [5]; in vivo
  Control value (%) WLB S.E. (systemic effect): 0%
[7]; 10 ppm
  Control value (%) RCB: 98%
[8]
  Control value (%) RCB S.E. (systemic effect): 0%
Puccinia recondita [9]
  Control value (%) WLB C.E. (curative effect): 0%
[10]; in vivo
  Control value (%) BPM: 94%

## Cc1cccc2sc3nncn3c12 [A, Tricyclazole]
[2]; 100 ppm
  Control value (%) RCB C.E. (curative effect): 0%
[7]; 50 ppm
  Control value (%) RCB: 90%
[8]
  Control value (%) RCB S.E. (systemic effect): 87%

## COc1ccc(C(=CC(=O)N2CCOCC2)c2ccc(Cl)cc2)cc1OC [D, Dimethomotph, reference compound]
Phytophthora infestans; 10 ppm
  Control value (%) TLB: 80%

## C[Si](Cn1cncn1)(c1ccc(F)cc1)c1ccc(F)cc1 [E, Flusilazole, reference compound]
[3]
  Control value (%) BPM C.E. (curative effect): 81%
Puccinia recondita [4]; in vivo
  Control value (%) WLR: 85%
Puccinia recondita [9]
  Control value (%) WLB C.E. (curative effect): 97%
[10]; in vivo
  Control value (%) BPM: 85%

## OCC1=C[C@H](N[C@H]2C[C@H](CO)[C@@H](O[C@@H]3O[C@H](CO)[C@@H](O)[C@H](O)[C@H]3O)[C@H](O)[C@H]2O)[C@H](O)[C@@H](O)[C@@H]1O [B, Validamycin, reference compound]
Rhizoctonia solani AG-1; in vivo
  Control value (%) RSB: 50%
